In patent publication US20040116436A1, “Treatment of dementia and parkinson's disease” (priority 2002, published 2004):
Read-outs that look alike come from different tables or passages of the source.

Tests used:
alpha 2B receptor = alpha 2B receptor (Homo sapiens, UniProt P18089); test: cell-based
Excerpt: (§1) In contrast, a method for measuring alpha receptor agonist selectivity comprises the RSAT (Receptor Selection and Amplification Technology) assay as reported in Messier et al., High Throughput Assays Of Cloned Adrenergic, Muscarinic, Neurokinin And Neurotrophin Receptors In Living Mammalian Cells, Pharmacol. Toxicol. 76:308-11 (1995) and has been adapted for use with alpha 2 receptors. This publication is incorporated by reference herein. The assay measures a receptor-mediated loss of contact inhibition that results in selective proliferation of receptor-containing cells in a mixed population of confluent cells. The increase in cell number is assessed with an appropriate transfected marker gene such as b-galactosidase, the activity of which can be easily measured in a 96-well format. Receptors that activate the G protein, Gq, elicit this response. Alpha2 receptors, which normally couple to Gi, activate the RSAT response when coexpressed with a hybrid Gq protein that has a Gi receptor recognition domain, called Gq/i5^2. See Conklin et al., Substitution Of Three Amino Acids Switches Receptor Specificity Of Gqa To That Of Gia, Nature 363:274-6. (1993) This reference is hereby incorporated by reference herein.
(§2) The data presented below was collected using the RSAT assay described above.
(§3) Efficacy of a given receptor or receptor subtype in accordance with the present invention is determined using the RSAT assay procedure described above.

alpha 2C receptor = alpha 2C receptor (Homo sapiens, UniProt P18825); test: cell-based
Excerpt: as §1, §2, §3

[1] = in vivo, ip
[2] = Excerpt: 30 C57B1/B6 type mice (8-12 weeks old) are allowed to acclimate for 12-14 days before experimental use.
alpha 1A receptor = alpha 1A receptor (Homo sapiens, UniProt P35348); conditions: RSAT assay; alpha 2 subtypes versus alpha 1A
[3] = tested on: dopaminergic neurons in the substantia nigra
[4] = tested on: dopaminergic neurons in the ventral tegmental area; conditions: MPTP mice; brimonidine 3 mg/kg/day

Compound | EC50 (alpha 2B receptor) | EC50 (alpha 2C receptor) | concentration at which sedative effect first becomes noticeable [1] | Open Field activity versus vehicle + MPTP group ([2]; 10 and 30 days post MPTP, brimonidine 3 mg/kg/day) | forelimb extension impairment, tail hang test ([2]; during the period that the compound is administered) | forelimb extension impairment, tail hang test ([2]; post-dosing (after 14 days of compound administration)) | greater activity at each alpha 2 receptor subtype than at the alpha 1A receptor (alpha 1A receptor) | neuron loss in the substantia nigra versus MPTP-treated animals ([3]; MPTP mice, brimonidine 3 mg/kg/day) | Average Neuron Count (statistical error) ([3]; substantia nigra, TH-labeled neurons, 55-60 days post MPTP 40 mg/kg sc, brimonidine 3 mg/kg/day sc mini-pump 14 days) | reduction of MPTP-induced neuron loss in the Ventral Tegmental area [4]
Clc1ccc2nsnc2c1NC1=NCCN1 [Tizanidine, tizanidine] | 127 nM | 1690 nM | about 100 micrograms/kg | – | – | – | – | – | – | –
Cc1cccc([C@H](C)c2cnc[nH]2)c1C [Dexmedetomidine, dexmedetomidine] | 2 nM | 1 nM | – | – | – | – | – | – | – | –
Brc1c(NC2=NCCN2)ccc2nccnc12 [Brimonidine, brimonidine] | – | – | – | no significant difference between this group and the vehicle group | does not reduce this impairment | does tend to reduce the impairment | at least 5.5 fold | significantly less neuron loss | 32 (±1) | about 10%
